Experimental data from ChEMBL document CHEMBL1201862, “PubChem BioAssay data set” (2004).
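These data come from cells grown in 96-well plates and exposed to compound for 48 hours at five concentrations. GI50 marks 50% less growth.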 Active and inactive are the calls of the source. Rule as the data show it: active = GI50 up to about 1.1 µM and inactive = higher.

What was measured:
Assay in all cases: NCI tumour cell line growth inhibition, 48 h
786-0 = test system: 786-0
A498 = test system: A498
A549 = test system: A549
ACHN = test system: ACHN
BT-549 = test system: BT-549
CAKI-1 = test system: CAKI-1
CCRF-CEM = test system: CCRF-CEM
COLO 205 = test system: COLO 205
DU-145 = test system: DU-145
EKVX = test system: EKVX
HCC 2998 = test system: HCC 2998
HCT-116 = test system: HCT-116
HCT-15 = test system: HCT-15
HL-60 = test system: HL-60
HOP-62 = test system: HOP-62
HOP-92 = test system: HOP-92
HT-29 = test system: HT-29
Hs-578T = test system: Hs-578T
IGROV-1 = test system: IGROV-1
K562 = test system: K562
LOX IMVI = test system: LOX IMVI
M14 = test system: M14
MCF7 = test system: MCF7
MDA-MB-231 = test system: MDA-MB-231
MDA-MB-435 = test system: MDA-MB-435
MDA-N = test system: MDA-N
MOLT-4 = test system: MOLT-4
Malme-3M = test system: Malme-3M
NCI-H226 = test system: NCI-H226
NCI-H23 = test system: NCI-H23
NCI-H460 = test system: NCI-H460
NCI-H522 = test system: NCI-H522
NCI/ADR-RES = test system: NCI/ADR-RES
OVCAR-3 = test system: OVCAR-3
OVCAR-5 = test system: OVCAR-5
OVCAR-8 = test system: OVCAR-8
PC-3 = test system: PC-3
RPMI-8226 = test system: RPMI-8226
RXF 393 = test system: RXF 393
SF-268 = test system: SF-268
SF-295 = test system: SF-295
SF-539 = test system: SF-539
SK-MEL-28 = test system: SK-MEL-28
SK-MEL-2 = test system: SK-MEL-2
SK-MEL-5 = test system: SK-MEL-5
SK-OV-3 = test system: SK-OV-3
SN12C = test system: SN12C
SNB-19 = test system: SNB-19
SW-620 = test system: SW-620
TK-10 = test system: TK-10
U-251 = test system: U-251
UACC-257 = test system: UACC-257
UACC-62 = test system: UACC-62
UO-31 = test system: UO-31
OVCAR-4 = test system: OVCAR-4
SNB-75 = test system: SNB-75
SR = test system: SR
T47D = test system: T47D

Measured: GI50

CC(=O)Oc1ccc(N2C(=O)C3c4[nH]c5ccccc5c4C4CCC(C(C)(C)C)CC4C3C2=O)cc1 (stereo not drawn)
4.07 µM: HCT-15
inactive: 786-0 2.1 µM | A498 4.11 µM | A549 3.13 µM | ACHN 3.55 µM | BT-549 4.02 µM | CAKI-1 5.31 µM | CCRF-CEM 10 µM | COLO 205 4.71 µM | DU-145 3.7 µM | EKVX 3.07 µM | HCC 2998 2.68 µM | HCT-116 2.15 µM | HL-60 2.21 µM | HOP-62 3.79 µM | HOP-92 3.03 µM | HT-29 3.3 µM | Hs-578T 2.31 µM | IGROV-1 5.97 µM | K562 3.26 µM | LOX IMVI 4.41 µM | M14 4.01 µM | MCF7 2.88 µM | MDA-MB-231 2.28 µM | MDA-MB-435 10.4 µM | MDA-N 4.67 µM | MOLT-4 10 µM | Malme-3M 6.56 µM | NCI-H226 12.7 µM | NCI-H23 3.56 µM | NCI-H460 2.55 µM | NCI-H522 4.45 µM | NCI/ADR-RES 3.56 µM | OVCAR-3 2.69 µM | OVCAR-5 2.63 µM | OVCAR-8 3.84 µM | PC-3 2.79 µM | RPMI-8226 6.68 µM | RXF 393 2.46 µM | SF-268 3.34 µM | SF-295 4.37 µM | SF-539 5.01 µM | SK-MEL-28 3.76 µM | SK-MEL-2 5.13 µM | SK-MEL-5 2.84 µM | SK-OV-3 10.8 µM | SN12C 2.14 µM | SNB-19 3.08 µM | SW-620 2.51 µM | TK-10 3.33 µM | U-251 3.27 µM | UACC-257 11.1 µM | UACC-62 6.08 µM | UO-31 5.35 µM

Cc1ccc(C(=O)Nc2ccc(S(=O)(=O)O)c3cc(S(=O)(=O)O)cc(S(=O)(=O)O)c23)cc1NC(=O)Nc1cc(C(=O)Nc2ccc(S(=O)(=O)O)c3cc(S(=O)(=O)O)cc(S(=O)(=O)O)c23)ccc1C
inactive: 786-0 > 87.5 µM | A498 > 87.5 µM | A549 > 87.5 µM | ACHN > 87.5 µM | BT-549 > 87.5 µM | CAKI-1 > 87.5 µM | CCRF-CEM > 87.5 µM | DU-145 > 87.5 µM | HCC 2998 > 87.5 µM | HCT-116 > 87.5 µM | HL-60 > 87.5 µM | HOP-62 > 87.5 µM | HT-29 > 87.5 µM | IGROV-1 > 87.5 µM | K562 > 87.5 µM | LOX IMVI > 87.5 µM | M14 > 87.5 µM | MCF7 > 87.5 µM | MDA-MB-231 > 87.5 µM | MDA-MB-435 > 87.5 µM | MDA-N > 87.5 µM | MOLT-4 > 87.5 µM | Malme-3M > 87.5 µM | NCI-H226 > 87.5 µM | NCI-H23 > 87.5 µM | NCI-H460 > 87.5 µM | NCI-H522 > 87.5 µM | OVCAR-3 > 87.5 µM | OVCAR-4 > 87.5 µM | OVCAR-5 > 87.5 µM | OVCAR-8 > 87.5 µM | PC-3 > 87.5 µM | RPMI-8226 > 87.5 µM | SF-268 > 87.5 µM | SK-MEL-28 > 87.5 µM | SK-MEL-2 > 87.5 µM | SK-MEL-5 > 87.5 µM | SN12C > 87.5 µM | SNB-19 > 87.5 µM | SNB-75 > 87.5 µM | SR > 87.5 µM | SW-620 > 87.5 µM | T47D > 87.5 µM | TK-10 > 87.5 µM | U-251 > 87.5 µM | UACC-257 > 87.5 µM | UACC-62 > 87.5 µM | UO-31 > 87.5 µM
> 87.5 µM: HCT-15
